Assay results from paper PMC9490236, “Accurate de novo design of membrane-traversing macrocycles” (Cell, 2022).
Where “and” joins values, the source holds several entries; their conditions need not be identical. Equal entries are not always repeated. Where two headings read alike, the source gives them in different places. Where a SMILES comes first, the peptide text is derived from it. [ ]: non-standard residue; d: D form. dNMeI = CC[C@@H](C)[C@@H](NC)C(=O)O; NMeL = CN[C@@H](CC(C)C)C(=O)O

Assay: Pharmacokinetics and oral bioavailability of D11.3 in male Swiss albino mice (IV, PO, SQ)
Format: in vivo
Conditions: for MRT last: read-out: MRT0-last
Experimental: In vivo bioavailability assays were conducted in mice and rats. D8.3.p1 and D10.1 were studied in female Balb/C mice by van Voorhis group at University of Washington. D11.2 was evaluated in Sprague Dawley (SD) rats by Robert Griffin’s group at Takeda Pharmaceuticals. D11.3 was studied in the male swiss albino mice by the contract research organization, GVK Biosciences Pvt. Ltd., Hyderabad, India. All animals used in these studies were handled in strict accordance with practices made to minimize suffering. All animal experiments conducted at the University of Washington, USA, and Takeda Pharmaceuticals, USA were approved by the Institutional Animal Care and Use Committee. Animal studies at GVK Biosciences were reviewed and approved by the Institutional Animal Ethics Committee of GVK Biosciences.
We selected four designed macrocycles with diverse structures and in vitro rates of permeability for in vivo oral bioavailability studies in the rodent models. Due to the intensive resource requirements for such studies, these studies were conducted by three different research groups. D8.3.p1 and D10.1 were studied in female Balb/C mice by van Voorhis group at University of Washington. D11.2 was evaluated in Sprague Dawley (SD) rats by Robert Griffin’s group at Takeda Pharmaceuticals. D11.3 was studied in the male swiss albino mice by the contract research organization, GVK Biosciences Pvt. Ltd., Hyderabad, India.
Pharmacokinetic properties of D11.3 were evaluated by the contract research organization, GVK Bio in Swiss Albino male mice after dosing the peptides through oral gavage (PO), subcutaneous (SQ), and intravenous (IV) routes. Plasma samples were collected at multiple time points up to 24 hours. Animals were dosed with 27 gauge needle through tail vein for IV, gastric gavage needle for PO, and 27 gauge needle on dorsal side for SQ. Plasma concentrations were determined using LC-MS/MS based quantification. Pharmacokinetic parameters were determined using non-compartmental analysis with Phoenix software version 8.1.
Dosing vehicle: DMSO (10%) + 10% solutol in PBS (90%) (IV, PO, SQ)
Dose volume: […] (PO, SQ); […] (IV)
Dose: 10 mg/kg (PO) 1 mg/kg (IV), 5mg/kg (SQ)

[1] = male, Swiss albino, mouse, plasma, IV 1.00 mg/kg
[2] = male, Swiss albino, mouse, plasma, PO 10.00 mg/kg
[3] = male, Swiss albino, mouse, plasma, SC 5.00 mg/kg

With `CC[C@@H](C)[C@H]1NC(=O)[C@H]([C@@H](C)CC)NC(=O)[C@H](CC(C)C)N(C)C(=O)[C@H]2CCCN2C(=O)[C@@H]([C@H](C)CC)NC(=O)[C@@H]([C@H](C)CC)N(C)C(=O)[C@H](CC(C)C)NC(=O)[C@H]2CCCN2C(=O)[C@@H]2CCCN2C(=O)[C@H](C(C)C)NC(=O)[C@H]2CCCN2C1=O` [Design D11.3, VAL PRO DPRO LEU *DILE DILE DPRO *LEU ILE DILE DPRO] (cyclo(I[dI][dP]VP[dP]L[dNMeI][dI][dP][NMeL])) the AUCExtra (IV 1.00 mg/kg) was 3.09%, the Plasma concentration (IV 1.00 mg/kg, 0.25 h, individual mice M1, M2, M3, 1 mg/kg) was 3305.02 ng/mL and 3779.15 ng/mL and 2973.54 ng/mL and the Plasma concentration (IV 1.00 mg/kg, 1 h, individual mice M1, M2, M3, 1 mg/kg) was 931.71 ng/mL and 1218.22 ng/mL and 1283.47 ng/mL. The Plasma concentration (IV 1.00 mg/kg, 3 h, individual mice M1, M2, M3, 1 mg/kg) was 887.86 ng/mL and 328.77 ng/mL and 318.62 ng/mL, the Plasma concentration (IV 1.00 mg/kg, 5 h, individual mice M1, M2, M3, 1 mg/kg) was 240.02 ng/mL and 271.55 ng/mL and 289.17 ng/mL and the Plasma concentration (IV 1.00 mg/kg, 8 h, individual mice M1, M2, M3, 1 mg/kg) was 399.46 ng/mL and 124.26 ng/mL and 182.53 ng/mL. For the same compound, the Plasma concentration (IV 1.00 mg/kg, 24 h, individual mice M1, M2, M3, 1 mg/kg) was 17.65 ng/mL and 30.97 ng/mL and 34.16 ng/mL, the “health of animals during the study” value (IV 1 mg/kg, PO 10 mg/kg, SQ 5 mg/kg) was “healthy throughout the duration of the study” and the AUCExtra (PO 10.00 mg/kg) was 1.91%. The Plasma concentration (PO 10.00 mg/kg, 0.08 h, individual mice M1, M2, M3, 10 mg/kg) was 47.49 ng/mL and 76.49 ng/mL and 84.94 ng/mL, the Plasma concentration (PO 10.00 mg/kg, 0.25 h, individual mice M1, M2, M3, 10 mg/kg) was 454 ng/mL and 804.64 ng/mL and 992.29 ng/mL and the Plasma concentration (PO 10.00 mg/kg, 0.5 h, individual mice M1, M2, M3, 10 mg/kg) was 2858.02 ng/mL and 2832.99 ng/mL and 1880.71 ng/mL. The Plasma concentration (PO 10.00 mg/kg, 1 h, individual mice M1, M2, M3, 10 mg/kg) was 2950.38 ng/mL and 3417.67 ng/mL and 2525.44 ng/mL, the Plasma concentration (PO 10.00 mg/kg, 3 h, individual mice M1, M2, M3, 10 mg/kg) was 3249.94 ng/mL and 3660.57 ng/mL and 3578.88 ng/mL and the Plasma concentration (PO 10.00 mg/kg, 5 h, individual mice M1, M2, M3, 10 mg/kg) was 3313.72 ng/mL and 2427.94 ng/mL and 1866.9 ng/mL. For the same compound, the Plasma concentration (PO 10.00 mg/kg, 8 h, individual mice M1, M2, M3, 10 mg/kg) was 1232.5 ng/mL and 1764.28 ng/mL and 1439.78 ng/mL, the Plasma concentration (PO 10.00 mg/kg, 24 h, individual mice M1, M2, M3, 10 mg/kg) was 177.35 ng/mL and 48.47 ng/mL and 59.29 ng/mL and the AUCExtra (SC 5.00 mg/kg) was 30.33%. For the same compound, the Plasma concentration (SC 5.00 mg/kg, 0.08 h, Mean) was 10.15 ng/mL, the Plasma concentration (SC 5.00 mg/kg, 0.25 h, Mean) was 35.04 ng/mL and the Plasma concentration (SC 5.00 mg/kg, 0.5 h, Mean) was 38.67 ng/mL. For the same compound, the Plasma concentration (SC 5.00 mg/kg, 0.5 h, individual mice M1, M2, M3, 5 mg/kg) was 23.29 ng/mL and 70.26 ng/mL and 22.46 ng/mL, the Plasma concentration (SC 5.00 mg/kg, 1 h, individual mice M1, M2, M3, 5 mg/kg) was 52.72 ng/mL and 45.05 ng/mL and 34.59 ng/mL and the Plasma concentration (SC 5.00 mg/kg, 3 h, individual mice M1, M2, M3, 5 mg/kg) was 141.22 ng/mL and 103.85 ng/mL and 139.25 ng/mL. For the same compound, the Plasma concentration (SC 5.00 mg/kg, 24 h, Mean) was 50.51 ng/mL, the level at 0.08 h (male, Swiss Albino, mouse, plasma, iv, 1 mg/kg, IV 1.00 mg/kg, 0.08 h, individual mice M1, M2, M3, read-out: Plasma concentration) was 3320 ng/mL and the level at 0.5 h (male, Swiss Albino, mouse, plasma, iv, 1 mg/kg, IV 1.00 mg/kg, 0.5 h, individual mice M1, M2, M3, read-out: Plasma concentration) was 2570 ng/mL. For the same compound, the level at 5 h (male, Swiss albino, mouse, plasma, sc, 5 mg/kg, SC 5.00 mg/kg, 5 h, individual mice M1, M2, M3, read-out: Plasma concentration) was 117 ng/mL, the level at 8 h (male, Swiss albino, mouse, plasma, sc, 5 mg/kg, SC 5.00 mg/kg, 8 h, individual mice M1, M2, M3, read-out: Plasma concentration) was 153 ng/mL and the AUC(0-inf) [1] was 7190 ng·h/mL. The AUC(0-t) [1] was 6970 ng·h/mL, the C0 [1] was 3960 ng/mL and the Vd [1] was 1.12 L/kg. It also gave a clearance [1] of 2.32 mL/min/kg, an AUC(0-inf) [2] of 28800 ng·h/mL and an AUC(0-t) [2] of 28200 ng·h/mL. The Cmax [2] was 3500 ng/mL, the Tmax [2] was 3 h and the bioavailability (male, Swiss albino, mouse, plasma, PO 10.00 mg/kg vs IV 1.00 mg/kg, read-out: F (oral bioavailability)) was 40% and 40.1%. It also gave an AUC(0-inf) [3] of 3050 ng·h/mL, an AUC(0-t) [3] of 2120 ng·h/mL and a Cmax [3] of 148 ng/mL. It also gave a Tmax [3] of 5 h, a half-life (mouse, in vivo, IV 1.00 mg/kg) of 335 min and an MRT last (mouse, in vivo, IV 1.00 mg/kg) of 4.64 h. For the same compound, the MRT last (mouse, in vivo, PO 10.00 mg/kg) was 6.32 h and the MRT last (mouse, in vivo, SC 5.00 mg/kg) was 10.7 h.
